# Square brackets hold non-standard residues; d marks the D form. Side chains are listed from the residue outwards. Peptide text beside a SMILES is read from it. * marks the point of attachment. X1 = NCCCCC(N)CN1CCC[C@H]1C(=O)*; Ahx = NCCCCCC(=O)O
# Key:
# Half-life in human serum = assay type: in vitro ADME; conditions: human serum at 37° C.
# Text: (§1) The term “standard peptide bond” means an amide bond of formula (—CONH—) which is normally present between 2 amino acids in a natural protein. Such a bond is sensitive to the action of proteases. The term “modified peptide bonds ψ” means a chemical bond between 2 amino acids of chemical formula distinct from the standard peptide bond of formula (—CONH—). […] The term “protease”, also known as “peptidase” or “proteolytic enzyme”, means any enzyme which cleaves the standard peptide bonds in proteins. This process is known as proteolytic cleavage. This involves the use of a water molecule which is what leads to proteases being classified as hydrolases. The proteases namely include proteases known as N-peptidases which carry out the cleavage of the N-terminal end of proteins. These proteases are particularly inconvenient in terms of the in vivo stability of peptides without modified peptide bonds.
# [1] = Half-life in foetal calf serum; assay type: in vitro ADME; conditions: bovine; foetal calf serum at 37° C.
# Text: as §1
structure (smiles),measurement,setting,value
"N=C(N)NCCC[C@H](NC(=O)[C@@H]1CCCN1CC(N)CCCCN)C(=O)NCCCC[C@H](NC(=O)[C@H](CCCCN)NC(=O)[C@H](CCCCNC(=O)[C@H](CCCNC(=N)N)NC(=O)[C@@H]1CCCN1CC(N)CCCCN)NC(=O)[C@H](CCCNC(=N)N)NC(=O)[C@@H]1CCCN1CC(N)CCCCN)C(=O)NCC(=O)N1CCC[C@H]1C(=O)N[C@@H](CCCCNC(=O)[C@H](CCCNC(=N)N)NC(=O)[C@@H]1CCCN1CC(N)CCCCN)C(=O)N[C@@H](CCC(=O)O)C(=O)N[C@@H](CCCCNC(=O)[C@H](CCCNC(=N)N)NC(=O)[C@@H]1CCCN1CC(N)CCCCN)C(=O)NCCCCCC(N)=O (some centres unmarked) [HB19, 5[Kψ(CH2N)PR]-TASP] (X1-RK([Arg-X1])KK([Arg-X1])GPK([Arg-X1])EK([Arg-X1])[Ahx]-NH2)",half-life,Half-life in human serum,> 24 h
same,half-life,[1],> 24 h
